In one experiment the target is EGFR. Particulars: dissociation constant described for EGFR-binding peptide GE11; cited from earlier work.
A further experiment has as its system A431 cells. As to the kind of experiment: Wound healing assay. It counts as cell-based. Particulars: 1 nM recombinant human EGF in RPMI medium, positive control. As to the method:
Since biophysical measurements are confounded by the intrinsic diversity of receptor conformations and imaging of moderate binding is difficult, we assessed peptide activity using a cell-based functional assay. Epidermoid tumor cell line A431 depends on EGF signaling for proliferation and migration, which can be assessed by wound healing assays monitoring the closure of a scratch in a cell lawn. A431 cells were grown to a confluent cell monolayer, serum-starved, and scratched. The resulting gap was monitored by microscopy and measured over a 6-h period (Figure 3A). As a positive, control cells were treated with 1 nM recombinant human EGF (hEGF) in RPMI medium. Cell migration in µm/h was calculated from a linear regression of the gap area over time plotted against time (Figure S6). […]
Figure 3 Effect of EGFR-directed peptides in the presence of the natural EGFR-ligand EGF in a wound healing assay with A431 cells. […] The yellow cell borders were detected by image recognition using ImageJ. […] (B) Bar chart presenting the cell migration velocity as determined from microscopy images. […]
Figure S6. […] The gap area over time is analyzed for each sample.
Areas were calculated using ImageJ. Linear regressions were calculated to determine to growth rate. […]

YHWYGYTPQNVI [GE11]: at EGFR, the Kd was 459 µM.

Regarding “hEGF: recombinant human epidermal growth factor, positive control”, the “increase in cell migration compared to negative control (buffer)” value in the experiment with A431 cells is reported as “three-fold increase”.

Values taken from publication PMC7765298, “EGFR-Binding Peptides: From Computational Design towards Tumor-Targeting of Adeno-Associated Virus Capsids” (International Journal of Molecular Sciences, 2020).
